One test deals with Alternaria solani. The experiment in a line: Alternaria solani (early blight of tomato/potato) in vitro test, radial growth on Potato Dextrose Agar. Type of test: cell-based. To be noted: 168 h, 300 ppm, seven days, 25° C., read-out: % control compared to the untreated check (radial growth).
The next test relates to Botrytis cinerea. Kind of test: Botrytis cinerea (gray mold) in vitro test, radial growth on Potato Dextrose Agar. The test is classed as cell-based. The following applies: 168 h, 300 ppm, seven days, 22° C., read-out: % (control) compared to the untreated check (radial growth).
The subject of the next test is Colletotrichum capsici. The experiment in a line: Colletotrichum capsici (anthracnose) in vitro test, radial growth on Potato Dextrose Agar. Type of test: cell-based. The following applies: Colletotrichum truncatum, 168 h; 300 ppm; seven days, 25° C.; read-out: % control compared to the untreated check (radial growth).
A further test relates to Pyricularia oryzae. The experiment in a line: microbe, parasite or virus in culture. The test is classed as cell-based. The following applies: 168 h, read-out: % control compared to the untreated check (radial growth).
In a further test the test system is Septoria lycopersici. The experiment in a line: Septoria lycopersici (leaf spot of tomato) in vitro test, radial growth on Potato Dextrose Agar. The following applies: 168 h, seven days, 25° C., read-out: % control compared to the untreated check (radial growth). Type of test: cell-based.
In another test the test system is Botrytis cinera. The experiment in a line: Greenhouse Botrytis cinera test in tomato, preventive. To be noted: 24 h, plants sprayed one day before inoculation, read-out: Efficacy (% control), disease severity vs untreated check. The test is classed as in vivo.
Another test has as its system Rhizoctonia solani. The experiment in a line: Rhizoctonia solani (rice sheath blight/potato black scurf) in vitro test, radial growth on Potato Dextrose Agar. The following applies: 168 h, 300 ppm, seven days, 25° C., read-out: % control compared to the untreated check (radial growth). The test is classed as cell-based.
The test system of test [1] is Fusarium culmorum. Kind of test: Fusarium culmorum (foot rot of cereals) in vitro test, radial growth on Potato Dextrose Agar. The test is classed as cell-based. To be noted: Fusarium culmorum, 168 h, read-out: % control compared to the untreated check (radial growth).
In test [2] the test system is Fusarium culmorum. The experiment in a line: Greenhouse Fusarium culmorum test in wheat, preventive. The test is classed as in vivo. To be noted: 24 h, read-out: Efficacy (% control), disease severity vs untreated check. As for the experimental part:
Compounds were dissolved in 2% DMSO/Acetone & then mixed with water to calibrated spray volume of 50 ml. This 50 ml spray solution was poured into the spray bottles for further applications.
To test the preventive activity of compounds, healthy young wheat plants raised in the greenhouse were sprayed with active compound preparation at the stated application rates inside the spray cabinets using hallowcone nozzles. One day after treatment, the plants were inoculated with spore suspension (2% Malt) containing 2×10^6 Fusarium culmorum inoculum. The inoculated plants were then kept in greenhouse chamber at 24° C. temperature and 80-90% relative humidity for disease expression.
A visual assessment of compound's performance was carried by rating the disease severity (0-100% scale) on treated plants on 3, 7, 10 and 15 days after application. Efficacy (% control) of the compounds was calculated by comparing the disease rating in the treatment with untreated control. The sprayed plants were also assessed for compound's phytotoxic effects by recording symptoms like necrosis, chlorosis and stunting.

`CCN(C)C=Nc1cc(C)c(Cc2ccc(Cl)c(Cl)c2)cc1C` [Compound 5, N′-(4-(3,4-dichlorobenzyl)-2,5-dimethylphenyl)-N-ethyl-N-methylformimidamide]: the inhibition of growth at 300 ppm with Alternaria solani was greater than 75%; in the test with Botrytis cinerea it was greater than 80%; in the test on Colletotrichum capsici it was greater than 80%; in the test on Pyricularia oryzae it was greater than 75%; with Septoria lycopersici, greater than 70%; with Rhizoctonia solani, greater than 80%. In addition, in the test on Fusarium culmorum [1], the inhibition of growth at 300 ppm turned out to be 75%. Also, the pest or weed control at 500 ppm in the test on Botrytis cinera lay within 70 to 100%.
On to `CCN(C)C=Nc1cc(C)c(Cc2ccccc2[N+](=O)[O-])cc1Cl` [Compound 75, N′-(2-chloro-5-methyl-4-(2-nitrobenzyl)phenyl)-N-ethyl-N-methylformimidamide], for which, in the test on Fusarium culmorum [2], the pest or weed control at 500 ppm was in the range of 70 to 100%. Besides, the inhibition of growth at 300 ppm with Alternaria solani was greater than 75%; in the test with Botrytis cinerea, greater than 80%; in the test with Colletotrichum capsici, greater than 80%; in the test with Pyricularia oryzae, greater than 75%; in the test with Rhizoctonia solani it was greater than 80%; in the test with Fusarium culmorum [1], 75%.
As to `CCN(C)C=Nc1cc(C)c(Cc2cc(Cl)ccc2Cl)cc1Cl` [Compound 166, N′-(2-chloro-4-(2,5-dichlorobenzyl)-5-methylphenyl)-N-ethyl-N-methylformimidamide], the inhibition of growth at 300 ppm is greater than 75% in the test on Alternaria solani; greater than 80% with Botrytis cinerea; greater than 80% in the test with Colletotrichum capsici; greater than 75% with Pyricularia oryzae; greater than 70% with Septoria lycopersici; greater than 80% in the test with Rhizoctonia solani. The pest or weed control at 500 ppm with Botrytis cinera was 70 to 100%.
As to `CCN(C)C=Nc1cc(C)c(Cc2ccc(C)c(C(F)(F)F)c2)cc1C` [Compound 104, N′-(2,5-dimethyl-4-(4-methyl-3-(trifluoromethyl)benzyl)phenyl)-N-ethyl-N-methylformimidamide], the inhibition of growth at 300 ppm in the test on Alternaria solani is greater than 75%; in the test on Botrytis cinerea it was greater than 80%; in the test on Colletotrichum capsici, greater than 80%; with Pyricularia oryzae it was greater than 75%; with Septoria lycopersici, greater than 70%; with Rhizoctonia solani, greater than 80%. Besides, in the test on Fusarium culmorum [1], the inhibition of growth at 300 ppm came out at 75%. Also, the pest or weed control at 500 ppm in the test on Botrytis cinera lay in the range of 70 to 100%.
Take `Cc1cc(N=CN2CCCCC2)c(C)cc1Cc1ccccc1Cl` [Compound 59, N-(4-(2-chlorobenzyl)-2,5-dimethylphenyl)-1-(piperidin-1-yl)methanimine]: the inhibition of growth at 300 ppm was greater than 75% in the test on Alternaria solani; greater than 80% with Botrytis cinerea; greater than 80% with Colletotrichum capsici; greater than 75% in the test with Pyricularia oryzae; greater than 70% in the test on Septoria lycopersici; greater than 80% in the test with Rhizoctonia solani. Besides, in the test with Fusarium culmorum [1], the inhibition of growth at 300 ppm was determined as 75%. Moreover, the pest or weed control at 500 ppm in the test on Botrytis cinera was 70 to 100%.
Regarding `CCN(C)C=Nc1cc(C)c(Cc2cccc(Cl)c2)cc1C` [Compound 11, N′-(4-(3-chlorobenzyl)-2,5-dimethylphenyl)-N-ethyl-N-methylformimidamide], the inhibition of growth at 300 ppm with Alternaria solani was greater than 75%; in the test with Botrytis cinerea it was greater than 80%; with Colletotrichum capsici it was greater than 80%; in the test on Pyricularia oryzae, greater than 75%; in the test with Rhizoctonia solani, greater than 80%; in the test with Fusarium culmorum [1] it was 75%. Further, the pest or weed control at 500 ppm with Botrytis cinera was 70 to 100%.
As to `CCN(C)C=Nc1cc(C)c(Cc2ccc(F)cc2)cc1Cl` [Compound 76, N′-(2-chloro-4-(4-fluorobenzyl)-5-methylphenyl)-N-ethyl-N-methylformimidamide], the pest or weed control at 500 ppm in the test on Fusarium culmorum [2] lay within 70 to 100%. Further, the inhibition of growth at 300 ppm in the test on Alternaria solani was greater than 75%; in the test with Botrytis cinerea it was greater than 80%; in the test on Colletotrichum capsici, greater than 80%; with Pyricularia oryzae, greater than 75%; in the test on Rhizoctonia solani, greater than 80%; with Fusarium culmorum [1], 75%.
With `CCN(C)C=Nc1cc(C)c(Cc2cccc(Br)c2)cc1C` [Compound 14, N′-(4-(3-bromobenzyl)-2,5-dimethylphenyl)-N-ethyl-N-methylformimidamide], the inhibition of growth at 300 ppm was greater than 75% in the test on Alternaria solani; greater than 80% in the test on Botrytis cinerea; greater than 80% with Colletotrichum capsici; greater than 75% with Pyricularia oryzae; greater than 70% with Septoria lycopersici; greater than 80% in the test on Rhizoctonia solani. Besides, the inhibition of growth at 300 ppm in the test with Fusarium culmorum [1] worked out at 75%. Further, the pest or weed control at 500 ppm in the test on Botrytis cinera was 70 to 100%.
For `CCN(C)C=Nc1cc(C)c(Cc2ccc(Br)cc2)cc1C` [Compound 4, N′-(4-(4-bromobenzyl)-2,5-dimethylphenyl)-N-ethyl-N-methylformimidamide], the inhibition of growth at 300 ppm was greater than 75% in the test with Alternaria solani; greater than 80% in the test with Botrytis cinerea; greater than 80% with Colletotrichum capsici; greater than 75% with Pyricularia oryzae; greater than 70% with Septoria lycopersici; greater than 80% in the test on Rhizoctonia solani. Moreover, the inhibition of growth at 300 ppm in the test on Fusarium culmorum [1] was 75%. Moreover, in the test with Botrytis cinera, the pest or weed control at 500 ppm was 70 to 100%.
Consider `CCN(C)C=Nc1cc(C)c(Cc2cc(Cl)cc(Cl)c2)cc1C` [Compound 3, N′-(4-(3,5-dichlorobenzyl)-2,5-dimethylphenyl)-N-ethyl-N-methylformimidamide], for which the inhibition of growth at 300 ppm was greater than 75% in the test on Alternaria solani; greater than 80% in the test with Botrytis cinerea; greater than 80% with Colletotrichum capsici; greater than 75% in the test with Pyricularia oryzae; greater than 70% in the test on Septoria lycopersici; greater than 80% in the test on Rhizoctonia solani. For the same compound, the pest or weed control at 500 ppm with Botrytis cinera is 70 to 100%.
As for `CCN(C)C=Nc1cc(C)c(Cc2ccc(Cl)c(F)c2)cc1C` [Compound 105, N′-(4-(4-chloro-3-fluorobenzyl)-2,5-dimethylphenyl)-N-ethyl-N-methylformimidamide], the inhibition of growth at 300 ppm in the test on Alternaria solani is greater than 75%; in the test on Botrytis cinerea, greater than 80%; in the test with Colletotrichum capsici, greater than 80%; with Pyricularia oryzae it was greater than 75%; in the test on Septoria lycopersici, greater than 70%; in the test on Rhizoctonia solani, greater than 80%. The inhibition of growth at 300 ppm in the test with Fusarium culmorum [1] was found to be 75%. In addition, in the test on Botrytis cinera, the pest or weed control at 500 ppm fell in the range of 70 to 100%.
On to `CCN(C)C=Nc1cc(C)c(Cc2cccc(C)c2)cc1Cl` [Compound 43, N′-(2-chloro-5-methyl-4-(3-methylbenzyl)phenyl)-N-ethyl-N-methylformimidamide], for which the inhibition of growth at 300 ppm in the test with Alternaria solani is greater than 75%; in the test with Botrytis cinerea it was greater than 80%; in the test on Colletotrichum capsici, greater than 80%; in the test with Pyricularia oryzae, greater than 75%; in the test on Septoria lycopersici, greater than 70%; in the test on Rhizoctonia solani it was greater than 80%. Moreover, in the test with Fusarium culmorum [1], the inhibition of growth at 300 ppm is 75%. In the test on Botrytis cinera, the pest or weed control at 500 ppm is 70 to 100%.
With `CCN(C)C=Nc1cc(C)c(Cc2cccc(C)c2)cc1C` [Compound 6, N′-(2,5-dimethyl-4-(3-methylbenzyl)phenyl)-N-ethyl-N-methylformimidamide], the inhibition of growth at 300 ppm in the test with Alternaria solani is greater than 75%; with Botrytis cinerea it was greater than 80%; in the test with Colletotrichum capsici, greater than 80%; in the test with Pyricularia oryzae it was greater than 75%; in the test with Septoria lycopersici, greater than 70%; in the test with Rhizoctonia solani, greater than 80%. In addition, the inhibition of growth at 300 ppm in the test on Fusarium culmorum [1] is 75%. In the test on Botrytis cinera, the pest or weed control at 500 ppm was 70 to 100%.
In the case of `CCN(C)C=Nc1cc(C)c(Cc2ccc(SC(F)(F)F)cc2)cc1Cl` [Compound 77, N′-(2-chloro-5-methyl-4-(4-((trifluoromethyl)thio)benzyl)phenyl)-N-ethyl-N-methylformimidamide], in the test with Fusarium culmorum [2], the pest or weed control at 500 ppm fell in the range of 70 to 100%. Also, the inhibition of growth at 300 ppm with Alternaria solani was greater than 75%; with Botrytis cinerea, greater than 80%; with Pyricularia oryzae, greater than 75%; with Rhizoctonia solani, greater than 80%; in the test with Fusarium culmorum [1] it was 75%.
Turning to `CCN(C)C=Nc1cc(C)c(C2(c3ccccc3)SCCS2)cc1C` [Compound 33, N′-(2,5-dimethyl-4-(2-phenyl-1,3-dithiolan-2-yl)phenyl)-N-ethyl-N-methylformimidamide], the pest or weed control at 500 ppm in the test with Fusarium culmorum [2] lay within 70 to 100%. The inhibition of growth at 300 ppm in the test with Alternaria solani is greater than 75%; with Pyricularia oryzae, greater than 75%; in the test with Septoria lycopersici, greater than 70%; with Rhizoctonia solani, greater than 80%.
